# Measured values as given in patent US20230285374A1, “THERAPEUTIC METHODS USING VADADUSTAT” (Akebia Therapeutics, Inc., priority 2019, published 2023).
# Key:
# [1] = tested on: subjects with anemia and Non-Dialysis-Dependent Chronic Kidney Disease (NDD-CKD); test: Phase 3 open-label, active-controlled NDD-CKD Conversion/Correction Study (J01), Compound 1 vs darbepoetin alfa, 52 weeks; assay type: in vivo, human
# Excerpt: This example describes the first open-label, active-controlled Phase 3 study of Compound 1 (Vadadustat or VDT or MT-6548) for treatment of anemia in subjects with Non-Dialysis-Dependent Chronic Kidney Disease (NDD-CKD) for up to 52 weeks. Efficacy and safety of Compound 1 was compared with darbepoetin alfa (DA) for the treatment of anemia in subjects with NDD-CKD. A subset of the subjects were switching to treatment with Compound 1 from an ESA therapy. […] These findings support the use of vadadustat as a durable, effective therapy for anemia in patients with NDD-CKD.
# The study population consisted of subjects 20 years of age with NDD-CKD, estimated glomerular filtration rate (eGFR)<60 mL/min/1.73 m^2, and hemoglobin (Hb) values greater than or equal to 8.0 g/dL and less than 11.0 g/dL (correction group) or greater than or equal to 9.0 g/dL and less than 12.5 g/dL (conversion group), who were currently treated with an erythropoiesis stimulating agent (ESA) for anemia.
# Following randomization, patients were treated for a period of up to 52 weeks. Patients were then observed post treatment for a period of two (2) weeks (“follow up” period).
# In order to be eligible for this study, patients were required to meet all of the following inclusion criteria: • Be at least 20 years of age, inclusive; • Have diagnosis of Chronic Kidney Disease with an estimated glomerular filtration rate (eGFR)<60 mL/minute/1.73 m^2 [eGFR (mL/min/1.73 m^2)=194×(serum creatinine)^−1.094×(age)^−0.287(females: ×0.739)] at screening; • Not have received dialysis within 8 weeks prior to the screening period nor expect to start dialysis during the treatment period; • ESA Treatment • Correction group: not receiving ESA for at least eight (8) weeks just before screening; • Conversion group: receiving the same formulation of ESA using the same administration route and the same dose interval (the dose interval should be the one described in the package insert for the ESA formulation) for at least 8 weeks just before screening using the dosages described below: Epoetin alfa and epoetin beta: ≥12,000 IU every 2 weeks Darbepoetin alfa: ≥120 μg every 2 weeks Epoetin beta pegol: ≥250 μg every 4 weeks • Baseline Hb: Correction group: ≥8.0 to <11.0 g/dL Conversion group: ≥9.0 to ≤12.0 g/dL • Have a difference of <1.5 g/dL in Hb for the latest two tests in the screening period; • Have serum ferritin values of ≥100 ng/mL or transferrin saturation of ≥20% during the screening period; and • Have folic acid and vitamin B12 values above standard minimum values during the screening period.
# Subjects deemed ineligible for into the study included those who: • Have anemia due to a cause other than CKD; • Have active bleeding or blood loss during the eight (8) weeks just before screening; • Have received a red blood cell transfusion during the eight (8) weeks just before screening; • Have uncontrolled hypertension; • Have active ocular fundus disease or cannot undergo an ocular fundus examination; • Have been diagnosed with cardiovascular disease, malignancy, or hemisiderosis; • Have a history of adverse drug reactions or a drug allergy; and • Have previously received Compound 1.
# • Average Hb level at weeks 20 and 24 of the treatment period.
# • Hb level at each treatment visit; and • The proportion of patients within the target Hb range (11.0-13.0 g/dL).
# Safety endpoints for this study were defined as follows: • Adverse events (AEs); • Adverse drug reactions; and
# Other endpoints for this study were defined as follows: • Iron-related parameters: serum ferritin, transferrin saturation (TSAT), total iron-binding capacity (TIBC), hepcidin, serum iron, and monthly dose of iron by any route of administration (oral and intravenous); and • Red blood cell indices. […]
# [2] = tested on: stage 3, 4, or 5 CKD patients; test: Phase 2a clinical trials in stage 3, 4, or 5 CKD patients (iron parameters vs placebo); assay type: in vivo, human
# Method: In certain embodiments, unsaturated iron binding capacity (UIBC) may be determined by adding serum to an alkaline buffer/reductant solution containing a known concentration of iron to saturate the available binding sites on transferrin. The Ferrozine chromogen reacts only with the Fe^2+; therefore, an iron reductant is added to insure that all iron is present in the ferrous state. The excess unbound divalent iron reacts with Ferrozine chromogen to form a magenta complex, which is measure spectrophotometrically. The unsaturated iron binding capacity (UIBC) is equal to the difference measured in the concentrations of the added iron solution and the excess unbound iron. Serum TIBC is equal to total serum iron plus UIBC and may therefore be calculated using the results of the UIBC and serum iron determinations.
# In certain embodiments, serum iron may be determined using a test based on the FerroZine method without deproteinization. Specimens are analyzed on the Roche Modular Instrument utilizing Roche Diagnostics Reagents. Under acidic conditions, iron is liberated from transferrin. The detergent clarifies lipemic samples. Ascorbate reduces the released Fe3+ ions to Fe2+ ions, which then react with FerroZine to form a colored complex. The color intensity is directly proportional to the iron concentration and can be measured photometrically.
# [3] = 52 weeks LOCF compared with baseline
structure (smiles),measurement,setting,value
"O=C(O)CNC(=O)c1ncc(-c2cccc(Cl)c2)cc1O [Compound 1, Vadadustat]",Deaths due to AEs,[1]; 52 weeks,0 (0.0) n (%)
same,"MCH, change",[1]; [3],significantly increased
same,"MCHC, change",[1]; [3],significantly increased
same,"MCV, change",[1]; [3],significantly increased
same,"RDW, change",[1]; [3],no significant differences
same,"TIBC, change",[1]; [3],significant increase
same,"TSAT, change",[1]; [3],no significant difference
same,"hepcidin, change",[1]; [3],significant decreases
same,"serum ferritin, change",[1]; [3],significant decreases
same,week at which mean Hb reached the target range (11.0-13.0 g/dL),[1]; ESA non-users,8 week
same,proportion of patients with Hb levels within the target range,"[1]; ESA non-users, Week 52",71.4%
same,proportion of patients with Hb levels within the target range,"[1]; ESA non-users, baseline",15.5%
same,week at which mean Hb reached the target range (11.0-13.0 g/dL),[1]; ESA users,8 week
same,proportion of patients with Hb levels within the target range,"[1]; ESA users, Hb<11.0 g/dl subgroup, Week 52",78.3%
same,proportion of patients with Hb levels within the target range,"[1]; ESA users, Hb<11.0 g/dl subgroup, baseline",4.7%
same,proportion of patients with Hb levels within the target range,"[1]; ESA users, Hb≥11.0 g/dl subgroup, Week 52",80.0%
same,proportion of patients with Hb levels within the target range,"[1]; ESA users, Hb≥11.0 g/dl subgroup, baseline",91.9%
same,proportion of patients with Hb levels within the target range,"[1]; ESA users, Week 52",79.2%
same,proportion of patients with Hb levels within the target range,"[1]; ESA users, baseline",45.0%
same,Hb levels during the treatment period,"[1]; ESA users, screening Hb ≥11.0 g/dl subgroup",maintained within the target range throughout the treatment period
same,time at which mean Hb reached the target range,"[1]; ESA users, screening Hb<11.0 g/dl subgroup",12 weeks
same,proportion of patients within the target Hb range,"[1]; conversion group, week 24",66.7%
same,average Hb at baseline,[1]; conversion patients,10.68 g/dL
same,average Hb at week 24,[1]; conversion patients,11.27 g/dL
same,average Hb at baseline,[1]; correction patients,10.17 g/dL
same,average Hb at week 24,[1]; correction patients,11.85 g/dL
same,proportion of patients within the target Hb range of 11.0-13.0 g/dL,"[1]; correction patients, week 24",69.7%
same,Adverse drug reaction,"[1]; human, in vivo, 52 weeks",20 (13.2) n (%)
same,Cardiac failure (AE of special interest),"[1]; human, in vivo, 52 weeks",6 (4.0) n (%)
same,Cardiovascular event (AE of special interest),"[1]; human, in vivo, 52 weeks",3 (2.0) n (%)
same,Constipation,"[1]; human, in vivo, 52 weeks",14 (9.3) n (%)
same,Diarrhea,"[1]; human, in vivo, 52 weeks",18 (11.9) n (%)
same,Discontinuation due to AEs,"[1]; human, in vivo, 52 weeks",10 (6.6) n (%)
same,Dose reduction or interruption of study drug due to AEs,"[1]; human, in vivo, 52 weeks",11 (7.3) n (%)
same,Hyperkalemia (AE of special interest),"[1]; human, in vivo, 52 weeks",1 (0.7) n (%)
same,Malignancy (AE of special interest),"[1]; human, in vivo, 52 weeks",2 (1.3) n (%)
same,Nasopharyngitis,"[1]; human, in vivo, 52 weeks",37 (24.5) n (%)
same,Pulmonary hypertension (AE of special interest),"[1]; human, in vivo, 52 weeks",0 (0.0) n (%)
same,Retinal disorder (AE of special interest),"[1]; human, in vivo, 52 weeks",4 (2.6) n (%)
same,Serious AEs,"[1]; human, in vivo, 52 weeks",42 (27.8) n (%)
same,Serious adverse drug reaction,"[1]; human, in vivo, 52 weeks",0 (0.0) n (%)
same,Subjects with ≥ 1 AE,"[1]; human, in vivo, 52 weeks",136 (90.1) n (%)
same,constipation,"[1]; human, in vivo, 52 weeks",9.3%
same,diarrhea,"[1]; human, in vivo, 52 weeks",11.9%
same,"incidence of adverse events (AEs), at least one AE","[1]; human, in vivo, 52 weeks",90.1%
same,incidence of serious adverse events (SAEs),"[1]; human, in vivo, 52 weeks",27.8%
same,nasopharyngitis,"[1]; human, in vivo, 52 weeks",24.5%
same,mean Hb level at week 52,[1]; overall population,11.51 g/dL
same,week at which mean Hb reached the target range (11.0-13.0 g/dL),[1]; overall population,8 week
same,LSMean of the average Hb at weeks 20 and 24,"[1]; overall population, MMRM",11.66 g/dL
same,Difference (Compound 1-Darbepoetin alfa) in LSMean of the average Hb at weeks 20 and 24,"[1]; overall population, noninferiority margin −0.75 g/dL",-0.26 g/dL
same,serum iron levels,[2]; 6 weeks post administration,not associated with an increase in serum iron levels
same,total iron binding capacity (TIBC) levels,"[2]; 6 weeks post administration, compared to placebo treated patients",increase
same,transferrin saturation (TSAT),[2]; dose-related,decrease
